Assay results published in US20110183889A1, “SALICYLANILIDE MODIFIED PEPTIDES FOR USE AS ORAL THERAPEUTICS” (The Regents of the University of California, priority 2007, published 2011).

Columns and labels:
[1] = cited from earlier work
[2] = tested on: LDL-induced monocyte chemotactic activity in cultures of human aortic endothelial cells; assay: HDL-inflammatory index: HDL from treated apoE null mice tested in human aortic endothelial cell cultures; format: in vivo; conditions: for HDL-inflammatory index, salicylanilide with D-4F or L-4F: FIG. 24, salicylanilide:peptide 10:1, peptide 5 μg by stomach tube
Description: 11-month-old female apoE null mice were fasted during the day. At night the mice were provided chow containing or not containing additions. […] The mice were only given one gram of chow per mouse (n=8 mice per group) so that they would consume all of the chow. In the morning after the chow was consumed the mice were bled and their plasma was sucrose cryopreserved and fractionated by FPLC and the HDL-containing fractions were tested for their ability to inhibit monocyte chemotactic activity induced by a standard control human LDL (A) in cultures of human aortic endothelial cells. The mouse HDL (C-J) was also compared to a standard human HDL (B) that was added at the same concentrations as the mouse HDL. The resulting monocyte chemotactic activity was normalized to the standard control LDL added alone (A). The results are plotted as the HDL-inflammatory index, which is the result of dividing the monocyte chemotactic activity measured for each condition by the monocyte chemotactic activity obtained by the standard control LDL added alone, which was normalized to 1.0 as described previously (Navab et al. (2004) J Lipid Res, 45: 993-1007).
A second experiment was performed as described for the first experiment with 8 mice in each group except that the additions to the chow were different. […] As in the first experiment the mice were only given one gram of chow per mouse so that they would consume all of the chow. In the morning this second group of mice were bled and their HDL tested in the human artery wall cell culture together with the HDL from the first experiment.
L-4F (free base) was diluted with water to give 10 μg per 100 μL of water. […] The mice were fasted and after 7 hours they were bled and their plasma was sucrose cryopreserved. The plasma was fractionated by FPLC and the HDL-containing fractions were tested for their ability to inhibit the induction of monocyte chemotactic activity by a standard control human LDL, which was added to cultures of human aortic endothelial cells. The standard control human LDL was also added by itself or with a standard control human HDL. The values obtained by the standard control human LDL alone were normalized to 1.0. The values obtained after the addition of the standard control HDL or the mouse HDL were compared to the values obtained by the standard control LDL alone to give the HDL Inflammatory Index.
Fasting was continued and the mice were bled 5 hours later and the HDL inflammatory index determined in cultures of human aortic endothelial cells as described in FIG. 8. Briefly, To determine the HDL-inflammatory index lipoproteins were added to human aortic endothelial cell cultures as described previously (Navab et al., (2005) Circulation Research 97: 524-532). A normal control human LDL was added to each well in triplicate at a final concentration of 100 μg/mL of LDL-cholesterol. A normal human HDL was added to three wells containing human LDL at a final concentration of 50 μg/mL HDL-cholesterol as a positive control. HDL from the mice at a final concentration of 50 μg/mL HDL-cholesterol was added in triplicate to other wells containing human LDL. After 8 hours of culture the supernatants were removed and monocyte chemotactic activity was determined as previously described (Navab et al. (2001) J. Lipid Res., 42: 1308-1317; Danciger et al. (2004) J. Immunol. Meth., 288: 123-124). The values obtained from wells containing the human LDL but no HDL were normalized to 1.0. The values obtained from wells containing the human LDL with either human or mouse HDL were divided by the values obtained from wells with human LDL without added HDL to give the HDL-inflammatory index as previously described (Ansell et al. (2003) Circulation 108: 2751-2756).

[3] = solubilization of niclosamide in water by L-4F; format: physicochemical; conditions: FIG. 13; Niclosamide 10 mg per mL in water or water with 1.0 mg/mL L-4F, homogenized, 4° C. ten days
Description: The solutions were stored at 4° C. for ten days and photographed (see FIG. 13).

[4] = tested on: monocyte chemotactic activity in cultures of human aortic endothelial cells; assay: LDL-inflammatory index: LDL from treated apoE null mice tested in human aortic endothelial cell cultures; format: in vivo; conditions: for LDL-inflammatory index, salicylanilide with D-4F or L-4F: FIG. 25, mice of FIG. 24
Excerpt: […] to induce monocyte chemotactic activity in cultures of human aortic endothelial cells and compared to a standard control human LDL whose values were normalized to 1.0 for the LDL-inflammatory index.

aortic sinus lesion area = assay: lesion regression in old apoE null mice, six months in chow; format: in vivo; conditions: FIGS. 32-34; L-4F 200 μg and niclosamide 2 mg/mouse/day in chow, pravastatin 50 μg/mouse/day, 26 weeks
Excerpt: Ninety-five female apoE null mice age 9.5 months from the UCLA breeding colony were identified. Twenty-three were sacrificed at time Zero (Group I) to establish lesion area at the start of the experiment. […] All groups received 50 micrograms/mouse/day of pravastatin in their drinking water. At the veterinarian's request because of fighting and/or ulcerative dermatitis mice were euthanized prior to the end of the experiment as follows: 6 mice from Group II; 5 mice from Group III; 4 mice from Group IV. After six months the remaining mice were sacrificed and aortic sinus lesion area was determined as described previously (Id.).
In still another experiments, nine and half months-old female apoE null mice were divided into four groups: Group I was sacrificed to establish base line lesion area (Time Zero). […] Group III received L-4F at 200 μg/mouse/day in rodent chow. […] Groups II-IV received pravastatin 50 μg/mouse/day in drinking water. After 26 weeks the mice were sacrificed and aortic sinus lesion area was determined.

[5] = mouse, in vivo; cited from earlier work
[6] = tested on: atherosclerosis in apoE Null mice; assay: atherosclerosis lesions (aortic sinus, en face, macrophage area), 14 weeks in chow; format: in vivo; conditions: FIGS. 29-31, L-4F 25 and niclosamide 250 μg/mouse/day in chow, all groups pravastatin 50 μg/mouse/day
[7] = tested on: LDL-induced monocyte chemotactic activity in cultures of human aortic endothelial cells; conditions: administered orally to mice; Navab et al. 2002; cited from earlier work
[8] = mouse, in vivo, po
[9] = self-association of L-4F in aqueous environment (non-denaturing gel); format: physicochemical; conditions: FIG. 39 lane 2
Excerpt: Lane 1 contains molecular weight markers (HMW).

HDL function = conditions: drinking water of apoE null mice for 24 hours; D-4F 1 μg/ml, statin 0.05 mg/ml; related application U.S. Ser. No. 10/423,830; cited from earlier work
[10] = target: the molecule itself; assay: non-denaturing gel (4-20%, coomassie blue), L-4F alone in lane 2; self-association of the peptide
[11] = FIG. 22, peptide 10 μg with or without niclosamide 10:1, ABCT pH 8.0, stomach tube, seven hours

## O=C(Nc1ccc([N+](=O)[O-])cc1Cl)c1cc(Cl)ccc1O [Niclosamide, 5-chloro-N-(2-chloro-4-nitrophenyl)-2-hydroxybenzamide]
[1]; at 20° C., ethanolamine salt in distilled water
  water solubility: 5 to 8 µg/mL
[1]
  solubility in acetone: soluble
  solubility in ether, ethanol and chloroform: sparingly soluble
[1]; moist environments
  stability in tablets: undergoes a biodegradation
[2]; FIG. 16, niclosamide 250 μg/day in chow, L-4F 25 μg/day in drinking water or chow, three days
  enhancement of the ability of L-4F to render HDL anti-inflammatory: greatly enhanced
[3]
  solubility of niclosamide in aqueous solution: relatively insoluble
[4]; FIG. 17, niclosamide 250 μg/day in chow, L-4F 25 μg/day in drinking water or chow, three days
  enhancement of the ability of L-4F to decrease LDL-induced monocyte chemotactic activity: greatly enhanced
Aortic sinus lesion area
  lesions in old apoE null mice versus Time Zero: neither niclosamide nor L-4F without niclosamide significantly reduced lesions

## Ac-DWFKAFYDKVAEKFKEAF-NH2 [L-4F, Ac-D-W-F-K-A-F-Y-D-K-V-A-E-K-F-K-E-A-F-NH2]
[2]; FIG. 8, female apoE null mice, additions to 1 g chow overnight: L-4F 2 or 10 μg, Niclosamide 8 or 100 μg
  HDL-inflammatory index: slightly but significantly improved
[2]; [11]
  HDL-inflammatory index: only able to achieve this degree of efficacy when co-administered with niclosamide
[2]; FIG. 37, fractions containing 10 μg L-4F or 10 μg niclosamide in ABCT by stomach tube, six hours
  HDL-inflammatory index: not effective
[5]
  degradation after oral administration: rapidly degraded
[6]
  atherosclerosis (aortic sinus lesion, en face, macrophage lesion area): not without niclosamide
[7]
  protective capacity of HDL to inhibit LDL-induced monocyte chemotactic activity: did not significantly alter
[8]
  detectability in the circulation: essentially non-detectable
[9]
  molecular weight of micelles formed by self-association: > 100 kDa
Aortic sinus lesion area
  lesions in old apoE null mice versus Time Zero: neither niclosamide nor L-4F without niclosamide significantly reduced lesions

## O=C(Nc1ccc([N+](=O)[O-])cc1Cl)c1ccc(Cl)cc1O [BP-1001]
[2]; six hours
  HDL-inflammatory index, salicylanilide with D-4F or L-4F: more potent than niclosamide
[4]
  LDL-inflammatory index, salicylanilide with D-4F or L-4F: more potent

## Ac-DWFKAFYDKVAEKFKEAF-NH2 [D-4F]
[2]; [11]
  HDL-inflammatory index: able to render apoE null mouse HDL anti-inflammatory to a degree comparable to normal human HDL
HDL function
  HDL function: did not significantly improve HDL function
[8]
  detectability in the circulation: essentially non-detectable

## O=C(Nc1ccc([N+](=O)[O-])cc1Cl)c1ccc(O)c(Cl)c1 [BP-1012]
[2]; six hours
  HDL-inflammatory index, salicylanilide with D-4F or L-4F: more potent than niclosamide
[4]
  LDL-inflammatory index, salicylanilide with D-4F or L-4F: more potent

## CC(C)c1c(C(=O)Nc2ccccc2)c(-c2ccccc2)c(-c2ccc(F)cc2)n1CC[C@@H](O)C[C@@H](O)CC(=O)O [atorvastatin, reference compound]
HDL function
  HDL function: did not improve HDL function

B1: L-4F (Ac-D-W-F-K-A-F-Y-D-K-V-A-E-K-F-K-E-A-F-NH2, all L amino acids) (peptide)
peptide: Ac-DWFKAFYDKVAEKFKEAF-NH2
notes: It self-associates into micelles; also called L-4F (free base)
[10]
  binding result: binds
